According to publication PMC9295122, “Sialic Acid Derivatives Inhibit SiaT Transporters and Delay Bacterial Growth” (ACS Chemical Biology, 2022):

T1: PmSiaT (Proteus mirabilis, UniProt B4EZY7)
T1 construct: made in house
T1 sequence (B4EZY7 1-496): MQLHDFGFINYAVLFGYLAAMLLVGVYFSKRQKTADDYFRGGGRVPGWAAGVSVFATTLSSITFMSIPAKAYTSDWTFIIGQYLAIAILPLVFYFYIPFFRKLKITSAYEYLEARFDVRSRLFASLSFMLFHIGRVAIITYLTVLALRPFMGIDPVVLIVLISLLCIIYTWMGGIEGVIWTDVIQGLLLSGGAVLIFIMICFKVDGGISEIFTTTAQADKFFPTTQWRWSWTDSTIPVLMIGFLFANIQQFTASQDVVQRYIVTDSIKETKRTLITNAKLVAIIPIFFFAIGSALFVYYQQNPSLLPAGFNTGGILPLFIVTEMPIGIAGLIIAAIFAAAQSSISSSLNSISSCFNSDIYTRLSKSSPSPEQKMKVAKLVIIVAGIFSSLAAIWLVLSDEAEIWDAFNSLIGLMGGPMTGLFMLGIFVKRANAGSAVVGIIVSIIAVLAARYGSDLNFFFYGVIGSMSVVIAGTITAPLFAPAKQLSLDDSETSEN


How the values were obtained:
[1] = target: T1, PmSiaT; assay: nanoDSF thermal shift assay, PmSiaT; assay type: binding; settings: for Average 1 / Average 2 / Average 3 / Replicate 1 / Replicate 2 / Replicate 3: PmSiaT Tm; for Average 1: average of experiment 1; for Average 2: average of experiment 2; for Average 3: average of experiment 3; for Replicate 1: experiment 1, second capillary; for Replicate 1 / Replicate 2 / Replicate 3 / Tm 1 / Tm2 / Tm 3 / Tm average overall: 1.25 mM; for Replicate 2: experiment 2, second capillary; for Replicate 3: experiment 3, second capillary; for Tm 1 / Tm2 / Tm 3 / Tm average overall: PmSiaT; for Tm 1: experiment 1, first capillary; for Tm2: experiment 2, first capillary; for Tm 3: experiment 3, first capillary; for Tm average overall: three experiments
Description: (§1) Nano-differential scanning fluorimetry (nanoDSF) is a high-throughput method that relies on the thermal stabilization of the folded protein state by a bound ligand.[33]
(§2) The melting points of protein–inhibitor complexes were measured on a Prometheus NT.48 instrument from NanoTemper Technologies. Solutions containing the protein at 2 μM in phosphate buffered saline with 0.0174% (w/v) dodecylmaltoside (DDM) and the ligand at 1.25 mM were loaded onto standard capillaries by NanoTemper. The temperature was increased from 25 to 95 °C at a ramp rate of 1 °C/min. The fluorescence was recorded at 330 and 350 nm and as a ratio of the two wavelengths.
(§3) The intensity ratio and its first derivative were calculated using manufacturer’s software (PR.ThermControl, version 2.1.2).
(§4) The melting temperatures have been measured in 3 separate experiments. In each experiment, two capillaries were included per compound, having therefore 2 technical replicates per experiment. In the table all data is presented. Tm1 and Replicate 1 represent the two replicates of the first experiment. Average 1 is the average between Tm 1 and Replicate 1. ΔTm 1 is the thermal shift when compared to the Tm of Neu5Ac. This is calculated from Average 1. The ΔTm presented in the article are the ΔTm average overall, which represent the overall average of the averages from the three experiments. The standard deviation (SD) is calculated from the […]

[2] = target: SaSiaT (Staphylococcus aureus, UniProt A0A0H2XJ46); assay: nanoDSF thermal shift assay, SaSiaT; assay type: binding; settings: for Average 1 / Average 2 / Average 3 / Replicate 1 / Replicate 2 / Replicate 3: SaSiaT Tm; for Average 1: average of experiment 1; for Average 2: average of experiment 2; for Average 3: average of experiment 3; for Replicate 1: experiment 1, second capillary; for Replicate 1 / Replicate 2 / Replicate 3 / Tm2 / Tm 3 / Overall average (Tm) / Tm 1: 1.25 mM; for Replicate 2: experiment 2, second capillary; for Replicate 3: experiment 3, second capillary; for Tm2 / Tm 3 / Overall average (Tm) / Tm 1: SaSiaT; for Tm2: experiment 2, first capillary; for Tm 3: experiment 3, first capillary; for Overall average (Tm): three experiments; for Tm 1: experiment 1, first capillary
Description: as §1, §2, §3, §4

[3] = substrate: CC(=O)N[C@H]1[C@H]([C@H](O)[C@H](O)CO)OC(O)(C(=O)O)C[C@@H]1O; assay: cells, lysate or membranes named; settings: other: Neu5Ac transport by SaSiaT in proteoliposomes; pH 7.0; 25.0 °C
Description: A kinetic analysis was performed by measuring the concentration-dependent uptake of [^3H]Neu5Ac in the presence of two different concentrations of the inhibitors 3f (Figure 5a,c) or 3e (Figure 5b,d).
(a–d) Data were plotted according to Lineweaver–Burk as a reciprocal transport rate vs reciprocal Neu5Ac concentration. The transport rate was measured, in 5 min, by adding [^3H] Neu5Ac at the indicated concentrations to proteoliposomes containing 20 mM K^+-gluconate in the presence of valinomycin as described in the Supporting Information. [(A,B) P. mirabilis SiaT]; (A) compound 3f 0.25 μM (●) or 0.75 μM (□) was added in comparison to samples without inhibitor (○). […]
For uptake experiments, 600 μL of proteoliposomes were loaded onto a Sephadex G-75 column (0.7 cm diameter × 15 cm height), pre-equilibrated with 20 mM Hepes Tris pH 7.0 with 40 mM sucrose to balance the internal osmolarity. […] For kinetic measurement, the initial transport rate was measured by stopping the reaction after 5 min, that is, within the initial linear range of [^3H]-Neu5Ac uptake into the proteoliposomes previously described. […] In both uptake and efflux experiments, the transport assay was terminated by loading each proteoliposome sample (100 μL) on a Sephadex G-75 column (0.6 cm diameter × 8 cm height) to remove the external radioactivity. […]

Molecule	Average 1 [1]	Average 2 [1]	Average 3 [1]	Replicate 1 [1]	Replicate 2 [1]	Replicate 3 [1]	Tm 1 [1]	Tm2 [1]	Tm 3 [1]	Tm average overall [1]	Average 1 [2]	Average 2 [2]	Average 3 [2]	Replicate 1 [2]	Replicate 2 [2]	Replicate 3 [2]	Tm2 [2]	Tm 3 [2]	Overall average (Tm) [2]	Tm 1 [2]	other results
CC(=O)NC1C(O)CC(O)(C(=O)O)OC1C(O)C(O)CN=[N+]=[N-] (centres unmarked) [Compound 8g]	46.0 °C	46.1 °C	46.0 °C	45.9 °C	46.2 °C	46.1 °C	46.0 °C	46.0 °C	45.9 °C	46.0 °C	48.7 °C	47.4 °C	48.5 °C	42.7 °C	47.4 °C	48.3 °C	47.4 °C	48.6 °C	48.2 °C	–	–
CC(=O)N[C@H]1[C@H]([C@H](O)[C@H](O)CO)OC(C(=O)O)=C[C@@H]1O [Compound 9, 2-deoxy-2,3-didehydro-N-acetylneuraminic acid, reference compound]	45.9 °C	46.2 °C	46.2 °C	45.7 °C	46.1 °C	46.3 °C	46.1 °C	46.3 °C	46.2 °C	46.1 °C	45.1 °C	45.8 °C	45.9 °C	45.2 °C	46.4 °C	46.4 °C	45.2 °C	45.4 °C	45.6 °C	45.0 °C	–
O=C(CO)N[C@H]1[C@H]([C@H](O)[C@H](O)CO)OC(O)(C(=O)O)C[C@@H]1O (some centres unmarked) [Neu5Gc, 5-N-glycolyl neuraminic acid, reference compound]	48.0 °C	48.1 °C	48.0 °C	48.0 °C	48.0 °C	48.0 °C	47.9 °C	48.1 °C	48.0 °C	48.0 °C	53.3 °C	53.3 °C	53.6 °C	53.3 °C	53.4 °C	53.6 °C	53.2 °C	53.6 °C	53.4 °C	53.3 °C	ΔTm at 1250 µM ([1]; read-out: ΔTm average overall): -1.2 °C
SiaT from S. aureus (Staphylococcus aureus subsp. aureus USA300) (protein) MKEVGFGTLNWVAVIIYLLAMLFIGVYFTKRASQSTNSFFTASGRLPSWVVGFSIYATTLSAITFMSTPEKAFLTDWSYIAGNIAIVAIIPLLIYFYVPFFKKLKVTSAYEYLEARFGPSIRVIGSLLFVVYHLGRVAIVIYLPTLAITSVSDMNPYIVASLVGLLCILYTFLGGFEGVVWSDFIQGVILLGGALVIIILGVVNIKGGFGTVFADAIEHKKLISADNWKLNTAAAAIPIIFLGNIFNNLYQYTASQDVVQRYQASDSLKETNKSLWTNGILALISAPLFYGMGTMLYSFYTHEAVLPKGFNTSSVVPYFILTEMPPFVAGLLIAAIFAAAQSTISSSLNSISACISIDIKQRFFGKGSERHEVNFARFIIIIAGIFGFGMSLYLIASNSNDLWDLFLFVTGLFGVPLAGVFAVGIFTKRTNTFGVICGLILGIIFAYVYNGVGKGNSPFYVSTISFTVAFVFAYILSFIVPSKHKKDITGLTIFEKDKPSTYISKTATKK	–	–	–	–	–	–	–	–	–	–	–	–	–	–	–	–	–	–	–	–	Km [3]: 12.2 ± 2.2 µM; Vmax [3]: 51 ± 9 nmol/mg protein/min
